Key:
Test in all cases: relative viability (nuclei count vs DMSO), 5 days (fraction); higher = more cells survive
IMD-0354 + Dasatinib = compound: O=C(Nc1cc(C(F)(F)F)cc(C(F)(F)F)c1)c1cc(Cl)ccc1O [IMD-0354] + Cc1nc(Nc2ncc(C(=O)Nc3c(C)cccc3Cl)s2)cc(N2CCN(CCO)CC2)n1 [Dasatinib] (partner 0.075 µM)
Method in brief: (§1)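 Lung cancer cell lines, seeded in 1536-well plates, were treated the following day by pin tool with a single drug or with five library-drug doses (not always all listed) in √10 steps on top of a fixed anchor-drug dose. Cells were fixed and nuclei stained in one step after 5 days, and nuclei were counted. Relative viability is the nuclei count for treated wells divided by that for vehicle wells, reported as medians of duplicate plates.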

IMD-0354 + Luminespib = compound: O=C(Nc1cc(C(F)(F)F)cc(C(F)(F)F)c1)c1cc(Cl)ccc1O [IMD-0354] + CCNC(=O)c1noc(-c2cc(C(C)C)c(O)cc2O)c1-c1ccc(CN2CCOCC2)cc1 [Luminespib] (partner 0.01 µM)
Method in brief: as §1

CX-5461 + Navitoclax = compound: Cc1cnc(CNC(=O)c2c(=O)c3ccc(N4CCCN(C)CC4)nc3n3c2sc2ccccc23)cn1 [CX-5461] + CC1(C)CCC(c2ccc(Cl)cc2)=C(CN2CCN(c3ccc(C(=O)NS(=O)(=O)c4ccc(N[C@H](CCN5CCOCC5)CSc5ccccc5)c(S(=O)(=O)C(F)(F)F)c4)cc3)CC2)C1 [Navitoclax] (partner 0.5 µM)
Method in brief: as §1

CX-5461 + Lapatinib = compound: Cc1cnc(CNC(=O)c2c(=O)c3ccc(N4CCCN(C)CC4)nc3n3c2sc2ccccc23)cn1 [CX-5461] + CS(=O)(=O)CCNCc1ccc(-c2ccc3ncnc(Nc4ccc(OCc5cccc(F)c5)c(Cl)c4)c3c2)o1 [Lapatinib] (partner 2 µM)
Method in brief: as §1

Row | Cell Line | relative viability (IMD-0354 + Dasatinib; first compound 0.04 µM) | relative viability (IMD-0354 + Dasatinib; first compound 0.1265 µM) | relative viability (IMD-0354 + Dasatinib; first compound 0.4 µM) | relative viability (IMD-0354 + Dasatinib; first compound 1.265 µM) | relative viability (IMD-0354 + Dasatinib; first compound 4 µM) | relative viability (IMD-0354 + Luminespib; first compound 0.04 µM) | relative viability (IMD-0354 + Luminespib; first compound 0.1265 µM) | relative viability (IMD-0354 + Luminespib; first compound 0.4 µM) | relative viability (IMD-0354 + Luminespib; first compound 1.265 µM) | relative viability (IMD-0354 + Luminespib; first compound 4 µM) | relative viability (CX-5461 + Navitoclax; first compound 0.01 µM) | relative viability (CX-5461 + Navitoclax; first compound 0.03162 µM) | relative viability (CX-5461 + Navitoclax; first compound 0.1 µM) | relative viability (CX-5461 + Navitoclax; first compound 0.3162 µM) | relative viability (CX-5461 + Navitoclax; first compound 1 µM) | relative viability (CX-5461 + Lapatinib; first compound 0.01 µM) | relative viability (CX-5461 + Lapatinib; first compound 0.03162 µM) | relative viability (CX-5461 + Lapatinib; first compound 0.1 µM) | relative viability (CX-5461 + Lapatinib; first compound 0.3162 µM) | relative viability (CX-5461 + Lapatinib; first compound 1 µM)
1 | NCI-H1975 | 0.421 | 0.398 | 0.233 | 0.128 | 0.135 | 0.24 | 0.197 | 0.183 | 0.153 | 0.162 | 1.29 | 1.1 | 1.09 | 1.25 | 0.871 | 1.14 | 0.921 | 0.855 | 0.927 | 0.386
2 | NCI-H1623 | 0.551 | 0.52 | 0.499 | 0.24 | 0.348 | 0.405 | 0.369 | 0.461 | 0.332 | 0.287 |  |  |  |  |  |  |  |  |  | 
3 | HCC-44 |  |  |  |  |  | 0.737 | 1.1 | 0.786 | 0.311 | 0.239 | 0.931 | 1.08 | 1.09 | 0.983 | 1.02 | 0.972 | 1.01 | 0.994 | 1.01 | 0.69
4 | NCI-H1703 |  |  |  |  |  |  |  |  |  |  | 1.22 | 1.28 | 0.932 | 1.13 | 0.313 | 1.2 | 1.45 | 1.1 | 1.14 | 0.502
5 | Calu-6 |  |  |  |  |  |  |  |  |  |  | 0.659 | 0.872 | 0.743 | 0.852 | 0.157 | 1.04 | 1.16 | 0.964 | 0.998 | 0.405
6 | EBC-1 |  |  |  |  |  |  |  |  |  |  | 0.391 | 0.374 | 0.437 | 0.416 | 0.197 | 0.214 | 0.191 | 0.244 | 0.2 | 0.208
7 | HCC-78 | 0.429 | 0.466 | 0.294 | 0.275 | 0.232 |  |  |  |  |  | 0.984 | 0.839 | 0.724 | 0.543 | 0.769 | 1 | 0.916 | 0.734 | 0.244 | 0.565
8 | IA-LM |  |  |  |  |  |  |  |  |  |  | 0.941 | 0.993 | 0.724 | 0.769 | 0.272 | 0.692 | 0.748 | 0.715 | 0.669 | 0.475
9 | NCI-H650 | 0.514 | 0.484 | 0.404 | 0.264 | 0.197 | 0.791 | 0.873 | 0.59 | 0.381 | 0.167 |  |  |  |  |  | 0.94 | 1.01 | 0.915 | 0.312 | 0.934
10 | ChaGo-K-1 | 0.635 | 0.59 | 0.434 | 0.2 | 0.237 | 0.639 | 0.566 | 0.364 | 0.223 | 0.228 | 1.32 | 0.947 | 0.752 | 0.413 | 0.618 |  |  |  |  | 
11 | NCI-H522 | 0.845 | 0.904 | 0.556 | 0.573 | 0.404 | 1.03 | 0.908 | 1.2 | 0.813 | 0.505 |  |  |  |  |  |  |  |  |  | 
12 | NCI-H1299 |  |  |  |  |  |  |  |  |  |  | 1.1 | 1.06 | 1.04 | 1.04 | 1.05 | 0.945 | 0.975 | 1 | 0.982 | 0.866
13 | NCI-H2342 | 0.329 | 0.326 | 0.236 | 0.312 | 0.327 | 0.771 | 0.746 | 0.629 | 0.699 | 0.388 |  |  |  |  |  |  |  |  |  | 
14 | SW 900 | 0.51 | 0.492 | 0.462 | 0.0924 | 0.18 | 0.187 | 0.162 | 0.178 | 0.143 | 0.161 |  |  |  |  |  |  |  |  |  | 
15 | HCC-366 | 0.681 | 0.792 | 0.382 | 0.221 | 0.0518 |  |  |  |  |  | 1.04 | 1.06 | 1.16 | 1.1 | 1.11 | 1.14 | 1 | 0.812 | 0.04 | 0.0982
16 | A549 |  |  |  |  |  |  |  |  |  |  | 1.05 | 0.932 |  | 0.833 | 0.035 | 0.989 | 1.04 | 0.698 | 0.867 | 0.0911
17 | NCI-H358 | 0.148 | 0.193 | 0.139 | 0.103 | 0.0831 | 0.292 | 0.286 | 0.305 | 0.322 | 0.167 |  |  |  |  |  | 0.389 | 0.447 | 0.392 | 0.267 | 0.306
18 | NCI-H661 | 0.903 | 1.04 | 0.533 | 0.197 | 0.234 | 0.971 | 0.946 | 0.364 | 0.254 | 0.217 |  |  |  |  |  | 0.382 | 0.533 | 0.611 |  | 0.402
19 | NCI-H1563 | 0.482 | 0.462 | 0.422 | 0.367 | 0.211 | 0.232 | 0.57 | 0.5 | 0.492 | 0.206 |  |  |  |  |  | 0.889 | 0.852 | 0.661 | 0.683 | 0.477
20 | ABC-1 | 0.67 | 0.673 | 0.279 | 0.165 | 0.228 | 0.381 | 0.82 | 0.32 | 0.237 | 0.307 |  |  |  |  |  | 1.17 | 1.32 | 1.04 |  | 1.05
21 | LCLC-103H | 0.42 | 0.487 | 0.311 | 0.232 | 0.201 | 1.1 | 0.894 | 0.744 | 0.432 | 0.222 |  |  |  |  |  |  |  |  |  | 
22 | NCI-H441 | 0.611 | 0.583 | 0.499 | 0.191 | 0.229 | 0.279 | 0.409 | 0.234 | 0.214 | 0.2 | 0.514 | 0.821 | 0.57 | 0.703 | 0.583 |  |  |  |  | 
